{"source": "paper PMC9330593", "about": "“The Structural Flexibility of PR-10 Food Allergens” (International Journal of Molecular Sciences, 2022)", "target": "T1, Ara h 8.0101 (Arachis hypogaea, UniProt Q6VT83)", "T1 construct": "recombinant, 15N-labelled; N-terminal glycine (initiator Met apparently absent)", "T1 sequence (Q6VT83 2-157)": "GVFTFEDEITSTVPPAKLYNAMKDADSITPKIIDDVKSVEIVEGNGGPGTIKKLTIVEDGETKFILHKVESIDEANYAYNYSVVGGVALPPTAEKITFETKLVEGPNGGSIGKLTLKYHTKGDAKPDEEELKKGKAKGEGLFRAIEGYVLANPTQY", "experiment": "1H-15N HSQC NMR titration", "type": "binding", "data": [{"smiles": "Oc1cc(O)c2c(c1)O[C@H](c1ccc(O)c(O)c1)[C@H](O)C2", "note": "[(-)-epicatechin]", "values": [{"measurement": "Kd", "value": "760 ± 370", "unit": "µM"}]}]}
